Source: patent US8772500B2, “TRPV3 modulators” (AbbVie Inc., priority 2011, dated 2014)

Tests used:
human TRPV3 = biological target: T1, human TRPV3 (Homo sapiens, UniProt Q8NET8); experiment: In vitro antagonism of recombinant human TRPV3 activation (FLIPR Tetra calcium assay, 2-APB as agonist); type: cell-based; conditions: HEK293 cells stably expressing human TRPV3; 2-APB 80 μM; range class; read-out: IC50 (reported range)
T1 construct: expressed in transfected cells
T1 sequence (Q8NET8 1-790): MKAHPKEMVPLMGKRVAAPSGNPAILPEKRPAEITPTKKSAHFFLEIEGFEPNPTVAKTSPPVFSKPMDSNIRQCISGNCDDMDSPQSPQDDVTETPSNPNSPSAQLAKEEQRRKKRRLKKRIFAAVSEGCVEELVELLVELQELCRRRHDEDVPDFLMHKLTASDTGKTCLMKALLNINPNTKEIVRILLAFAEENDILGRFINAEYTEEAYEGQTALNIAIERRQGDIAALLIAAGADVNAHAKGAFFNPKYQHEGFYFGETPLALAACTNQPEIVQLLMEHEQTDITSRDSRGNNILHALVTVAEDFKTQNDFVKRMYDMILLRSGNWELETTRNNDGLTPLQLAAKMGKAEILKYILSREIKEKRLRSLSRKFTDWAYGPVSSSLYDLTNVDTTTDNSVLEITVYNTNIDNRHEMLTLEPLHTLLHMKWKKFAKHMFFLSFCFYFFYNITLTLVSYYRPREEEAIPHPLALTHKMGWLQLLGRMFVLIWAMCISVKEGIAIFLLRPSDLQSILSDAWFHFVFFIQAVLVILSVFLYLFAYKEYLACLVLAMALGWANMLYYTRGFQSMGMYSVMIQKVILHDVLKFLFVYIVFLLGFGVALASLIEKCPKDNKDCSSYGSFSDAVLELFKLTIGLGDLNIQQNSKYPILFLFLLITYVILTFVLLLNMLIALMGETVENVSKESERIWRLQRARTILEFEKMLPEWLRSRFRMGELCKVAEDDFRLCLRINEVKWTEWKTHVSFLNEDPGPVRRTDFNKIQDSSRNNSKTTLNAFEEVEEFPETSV
Summary of the method: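 Readout is FLIPR fluorescence, max minus min as percent of uninhibited 2-APB response, giving IC50 (usually mean of ≥2 runs). Stable human TRPV3 HEK293 cells, Calcium-4 dye-loaded, got test compound then, three minutes later, 80 μM 2-APB (EC80); run length 10 min.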

[1] = In vitro human microsomal stability assay; type: in vitro ADME; conditions: human, 0.5 h, 0.5 μM, pH 7.4
Summary of the method: (§1)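 Rat (Sprague-Dawley) and human liver microsomes were incubated with test compound and NADPH at 37 °C. Time-zero samples also received NADPH.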

[2] = In vitro rat microsomal stability assay; type: in vitro ADME, rat (Sprague-Dawley); conditions: Sprague-Dawley, rat, 0.5 h, 0.5 μM, pH 7.4
Summary of the method: as §1

Structure (SMILES) | IC50 (human TRPV3) [µM] | HUMAN MICROSOMAL STABILITY (% REMAINING AFTER 30 MINUTES) [1] [%] | RAT MICROSOMAL STABILITY (% REMAINING AFTER 30 MINUTES) [2] [%]
CC(C)(C)OC(=O)N1CC(c2ccc(C(F)(F)F)cc2)(C(O)c2ccccn2)C1 (stereo not drawn) [Example 153, tert-butyl 3-[hydroxy(pyridin-2-yl)methyl]-3-[4-(trifluoromethyl)phenyl]-azetidine-1-carboxylate] | 5.1 to 20 | 49 | 21
O[C@H](c1ccccn1)C1(c2ccc(C(F)(F)F)cc2)CC(F)(F)C1 [Example 154, (S)-{3,3-difluoro-1-[4-(trifluoromethyl)phenyl]cyclobutyl}(pyridin-2-yl)-methanol] | 0.05 to 0.5 | 56 | 78
CN1CC(c2ccc(C(F)(F)F)cc2)(C(O)c2ccccn2)C1 (stereo not drawn) [Example 155, {1-methyl-3-[4-(trifluoromethyl)phenyl]azetidin-3-yl}(pyridin-2-yl)methanol] | 5.1 to 20 | >85 | 76
O[C@@H](c1ccccn1)C1(c2ccc(OC(F)(F)F)cc2)CC(F)(F)C1 [Example 159, (R)-{3,3-difluoro-1-[4-(trifluoromethoxy)phenyl]cyclobutyl}(pyridin-2-yl)methanol] | 1.1 to 5 | 45 | 65
O=C1CC(c2ccc(C(F)(F)F)cc2)(C(O)c2ccccn2)C1 (stereo not drawn) [Example 160, 3-[hydroxy(pyridin-2-yl)methyl]-3-[4-(trifluoromethyl)phenyl]cyclobutanone] | 5.1 to 20 | >85 | 60
OC(c1ccccn1)C1(c2ccc(C(F)(F)F)cc2)CC2(C1)OCCO2 (stereo not drawn) [Example 161, pyridin-2-yl{2-[4-(trifluoromethyl)phenyl]-5,8-dioxaspiro[3.4]oct-2-yl}-methanol] | 1.1 to 5 | 61 | <0.01
OC(c1ccccn1)C1(C2CCCCC2)CCC1 (stereo not drawn) [Example 162, (1-cyclohexylcyclobutyl)(pyridin-2-yl)methanol] | 1.1 to 5 | 0.02 | <0.01
OC(c1ccccn1)C1(C2CCCC2)CCC1 (stereo not drawn) [Example 163, (1-cyclopentylcyclobutyl)(pyridin-2-yl)methanol] | 1.1 to 5 | 0.11 | <0.01
OC1CC(c2ccc(C(F)(F)F)cc2)([C@H](O)c2ccccn2)C1 (stereo partly drawn) [Example 166, 3-[(S)-hydroxy(pyridin-2-yl)methyl]-3-[4-(trifluoromethyl)phenyl]-cyclobutanol] | 5.1 to 20 | >85 | >85
OC(C1CCc2cccnc21)C1(c2ccc(Cl)c(Cl)c2)CCC1 (stereo not drawn) [Example 168, (syn)-[1-(3,4-dichlorophenyl)cyclobutyl][6,7-dihydro-5H-cyclopenta[b]-pyridin-7-yl]methanol] | 5.1 to 20 | 5.6 | <0.01
OC(C1CCCc2cccnc21)C1(c2ccc(F)c(F)c2)CCC1 (stereo not drawn) [Example 169, (anti)-[1-(3,4-difluorophenyl)cyclobutyl][5,6,7,8-tetrahydroquinolin-8-yl]-methanol] | 5.1 to 20 | <0.01 | <0.01
OC(C1CCCc2cccnc21)C1(c2ccc(OC(F)(F)F)cc2)CCC1 (stereo not drawn) [Example 177, (anti)-5,6,7,8-tetrahydroquinolin-8-yl{1-[4-(trifluoromethoxy)phenyl]-cyclobutyl}methanol] | 1.1 to 5 | 0.12 | <0.01
OC(C1CCCc2cccnc21)C1(c2cccc(C(F)(F)F)c2)CCC1 (stereo not drawn) [Example 179, (anti)-5,6,7,8-tetrahydroquinolin-8-yl{1-[3-(trifluoromethyl)phenyl]-cyclobutyl}methanol] | 1.1 to 5 | <0.01 | <0.01
OC(C1CCCc2cccnc21)C1(c2ccc(Cl)c(Cl)c2)CCC1 (stereo not drawn) [Example 181, (anti)-[1-(3,4-dichlorophenyl)cyclobutyl][5,6,7,8-tetrahydroquinolin-8-yl]-methanol] | 1.1 to 5 | <0.01 | <0.01
OC(C1CCCc2cccnc21)C1(c2ccc(C(F)(F)F)cc2)CCC1 (stereo not drawn) [Example 183, (anti)-5,6,7,8-tetrahydroquinolin-8-yl{1-[4-(trifluoromethyl)phenyl]-cyclobutyl}methanol] | 1.1 to 5 | <0.01 | <0.01
OC1CC(c2ccc(C(F)(F)F)cc2)(C(O)c2ccccn2)C1 [Example 200, cis-3-[(S)-hydroxy(pyridin-2-yl)methyl]-3-[4-(trifluoromethyl)phenyl]-cyclobutanol] | 5.1 to 20 | >85 | >85
OC1CC(c2ccc(C(F)(F)F)cc2)(C(O)c2ccccn2)C1 [Example 201, trans-3-[(S)-hydroxy(pyridin-2-yl)methyl]-3-[4-(trifluoromethyl)phenyl]-cyclobutanol] | 5.1 to 20 | 73 | >85
OC(c1ccccn1)C1(c2ccc(OC(F)(F)F)cc2)CC2(C1)OCCO2 (stereo not drawn) [Example 202, pyridin-2-yl{2-[4-(trifluoromethoxy)phenyl]-5,8-dioxaspiro[3.4]oct-2-yl}-methanol] | 5.1 to 20 | 73 | <0.01
CC1(O)CC(c2ccc(OC(F)(F)F)cc2)(C(O)c2ccccn2)C1 [Example 203, trans-3-[(S)-hydroxy(pyridin-2-yl)methyl]-1-methyl-3-[4-(trifluoromethoxy)-phenyl]cyclobutanol] | 5.1 to 20 | >85 | 74
NC1CCCC1C(O)C1(c2cccc(C(F)(F)F)c2)CCC1 (stereo not drawn) [Example 204, (2-aminocyclopentyl){1-[3-(trifluoromethyl)phenyl]cyclobutyl}methanol] | 1.1 to 5 | >85 | >85
NC1CCCC1C(O)C1(c2ccc(C(F)(F)F)cc2)CCC1 (stereo not drawn) [Example 205, (2-aminocyclopentyl){1-[4-(trifluoromethyl)phenyl]cyclobutyl}methanol] | 1.1 to 5 | >85 | >85
NC1CCCC1C(O)C1(c2ccc(OC(F)(F)F)cc2)CCC1 (stereo not drawn) [Example 206, (2-aminocyclopentyl){1-[4-(trifluoromethoxy)phenyl]cyclobutyl}methanol] | 1.1 to 5 | 83 | 62
NC1CCCCC1C(O)C1(c2cccc(C(F)(F)F)c2)CCC1 (stereo not drawn) [Example 212, (2-aminocyclohexyl){1-[3-(trifluoromethyl)phenyl]cyclobutyl}methanol] | 1.1 to 5 | >85 | 3.9
